Results as given in ChEMBL document CHEMBL1909046, “DrugMatrix in vitro pharmacology data”.

Experiments:
[1] = target: T1, Alpha-2C adrenergic receptor (Homo sapiens, UniProt P18825); assay: DRUGMATRIX: Adrenergic Alpha-2C radioligand binding (ligand: [3H] MK-912); assay type: cell membranes, Sf9, Membrane; conditions: sf9
T1 sequence (P18825 whole entry): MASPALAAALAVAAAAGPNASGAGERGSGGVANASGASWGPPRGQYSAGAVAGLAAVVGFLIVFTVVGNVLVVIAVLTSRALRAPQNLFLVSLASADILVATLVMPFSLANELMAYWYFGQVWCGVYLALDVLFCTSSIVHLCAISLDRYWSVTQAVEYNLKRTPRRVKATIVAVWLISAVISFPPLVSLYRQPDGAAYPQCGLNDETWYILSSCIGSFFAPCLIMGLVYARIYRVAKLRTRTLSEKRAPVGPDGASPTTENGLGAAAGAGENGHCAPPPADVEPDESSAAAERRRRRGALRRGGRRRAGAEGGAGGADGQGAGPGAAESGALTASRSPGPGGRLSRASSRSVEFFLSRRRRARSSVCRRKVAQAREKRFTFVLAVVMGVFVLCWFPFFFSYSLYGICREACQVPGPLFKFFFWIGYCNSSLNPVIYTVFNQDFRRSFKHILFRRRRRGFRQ

[2] = target: 5-hydroxytryptamine receptor 6 (Homo sapiens, UniProt P50406); assay type: cell membranes, HeLa, Membrane; conditions: hela; also: in other assays of this panel Not Active means under 50% inhibition at 10 µM
Thromboxane-A synthase = target: T2, Thromboxane-A synthase (Homo sapiens, UniProt P24557); assay: biochemical; assay type: tissue-based, Platelet; conditions: platelet;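 also: enzyme inhibition assay with PGH2 supplied as substrate; in other assays of this panel Not Active means under 50% inhibition at 10 µM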
T2 sequence (P24557 whole entry): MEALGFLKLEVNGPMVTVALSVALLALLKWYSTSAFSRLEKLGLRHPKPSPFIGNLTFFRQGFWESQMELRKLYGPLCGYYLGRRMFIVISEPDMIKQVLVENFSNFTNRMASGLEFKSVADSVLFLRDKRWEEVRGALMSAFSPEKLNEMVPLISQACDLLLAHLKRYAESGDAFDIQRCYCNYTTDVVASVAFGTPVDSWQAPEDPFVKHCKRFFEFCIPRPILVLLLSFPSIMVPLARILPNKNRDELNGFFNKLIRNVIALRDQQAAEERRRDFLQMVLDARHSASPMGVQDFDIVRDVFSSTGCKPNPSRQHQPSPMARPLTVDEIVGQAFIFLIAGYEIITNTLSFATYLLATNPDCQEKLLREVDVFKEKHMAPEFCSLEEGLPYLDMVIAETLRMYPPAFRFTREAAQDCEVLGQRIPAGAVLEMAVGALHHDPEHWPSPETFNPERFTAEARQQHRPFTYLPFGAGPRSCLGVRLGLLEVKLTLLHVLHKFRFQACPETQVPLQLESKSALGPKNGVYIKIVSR

[3] = DRUGMATRIX: GABAA, Flunitrazepam, Central radioligand binding (ligand: [3H] Flunitrazepam); assay type: cell membranes, Rattus norvegicus, Wistar, Brain, Membrane; conditions: Not Active = under 50% inhibition at 10 µM
Mu-type opioid receptor = Mu-type opioid receptor (Homo sapiens, UniProt P35372); assay: DRUGMATRIX: Opiate mu (OP3, MOP) radioligand binding (ligand: [3H] Diprenorphine); assay type: cell membranes, CHO-K1, Membrane; conditions: cho-k1; Not Active = under 50% inhibition at 10 µM
[4] = target: Protein phosphatase 3 catalytic subunit alpha (Homo sapiens, UniProt Q08209); design: species or system Escherichia coli;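 also: inhibition of calcineurin (PP2B) enzyme activity, measured with DiFMUP as the substrate; in other assays of this panel Not Active means under 50% inhibition at 10 µM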

Mu-type opioid receptor, sequence (P35372 whole entry): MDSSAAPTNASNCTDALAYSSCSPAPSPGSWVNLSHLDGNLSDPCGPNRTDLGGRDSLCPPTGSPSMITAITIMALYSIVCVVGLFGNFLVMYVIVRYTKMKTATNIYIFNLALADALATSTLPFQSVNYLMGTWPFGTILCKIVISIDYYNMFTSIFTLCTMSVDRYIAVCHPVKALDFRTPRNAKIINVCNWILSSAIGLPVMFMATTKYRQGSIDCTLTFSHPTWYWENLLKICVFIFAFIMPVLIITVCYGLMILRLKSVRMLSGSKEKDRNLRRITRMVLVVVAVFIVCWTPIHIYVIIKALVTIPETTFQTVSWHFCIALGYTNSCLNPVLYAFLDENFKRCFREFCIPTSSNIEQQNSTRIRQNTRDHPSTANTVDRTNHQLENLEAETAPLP
5-hydroxytryptamine receptor 6, sequence (P50406 whole entry): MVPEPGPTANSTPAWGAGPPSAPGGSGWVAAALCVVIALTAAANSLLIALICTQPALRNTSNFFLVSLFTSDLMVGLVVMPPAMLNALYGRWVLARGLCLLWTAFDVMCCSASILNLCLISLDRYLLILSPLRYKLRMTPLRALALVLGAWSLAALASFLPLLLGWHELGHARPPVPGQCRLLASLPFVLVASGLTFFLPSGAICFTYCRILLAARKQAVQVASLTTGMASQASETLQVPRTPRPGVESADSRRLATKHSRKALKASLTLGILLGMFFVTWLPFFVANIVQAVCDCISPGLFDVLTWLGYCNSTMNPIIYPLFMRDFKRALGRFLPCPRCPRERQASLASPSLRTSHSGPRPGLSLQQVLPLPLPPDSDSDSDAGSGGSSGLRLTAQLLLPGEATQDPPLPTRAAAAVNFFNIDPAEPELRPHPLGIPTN

Cc1c(F)c(N2CCNC(C)C2)cc2c1c(=O)c(C(=O)O)cn2C1CC1 (centres undefined) [GREPAFLOXACIN]
Not Active: IC50 [1] | IC50 [2] | IC50 (Thromboxane-A synthase) | IC50 [3] | Ki [3] | IC50 (Mu-type opioid receptor) | IC50 [4]

COc1ccccc1OCC(O)CO (centres undefined) [GUAIFENESIN]
Not Active: IC50 [1] | IC50 [2] | IC50 (Thromboxane-A synthase) | IC50 [3] | Ki [3] | IC50 (Mu-type opioid receptor) | IC50 [4]

C[C@]12CCC(=O)C=C1CC[C@@H]1[C@@H]2[C@@H](O)C[C@@]2(C)[C@H]1CC[C@]2(O)C(=O)CO [HYDROCORTISONE]
Not Active: IC50 [1] | IC50 [2] | IC50 (Thromboxane-A synthase) | IC50 [3] | Ki [3] | IC50 (Mu-type opioid receptor) | IC50 [4]

C/C=C\c1ccc(O)c(OC)c1 [ISOEUGENOL]
Not Active: IC50 [1] | IC50 [2] | IC50 (Thromboxane-A synthase) | IC50 [3] | Ki [3] | IC50 (Mu-type opioid receptor) | IC50 [4]

NC[C@H]1O[C@H](O[C@H]2[C@H](O)[C@@H](O[C@H]3O[C@H](CO)[C@@H](O)[C@H](N)[C@H]3O)[C@H](N)C[C@@H]2N)[C@H](O)[C@@H](O)[C@@H]1O [KANAMYCIN]
Not Active: IC50 [1] | IC50 [2] | IC50 (Thromboxane-A synthase) | IC50 [3] | Ki [3] | IC50 (Mu-type opioid receptor) | IC50 [4]

CC[C@H](C)C(=O)O[C@H]1C[C@@H](C)C=C2C=C[C@H](C)[C@H](CC[C@@H]3C[C@@H](O)CC(=O)O3)[C@H]21 [LOVASTATIN]
Not Active: IC50 [1] | IC50 [2] | IC50 (Thromboxane-A synthase) | IC50 [3] | Ki [3] | IC50 (Mu-type opioid receptor) | IC50 [4]

CC(C(=O)O)c1ccc(CC2CCCC2=O)cc1 (centres undefined) [LOXOPROFEN]
Not Active: IC50 [1] | IC50 [2] | IC50 (Thromboxane-A synthase) | IC50 [3] | Ki [3] | IC50 (Mu-type opioid receptor) | IC50 [4]

Cc1cccc(Nc2ccccc2C(=O)O)c1C [MEFENAMIC ACID]
Not Active: IC50 [1] | IC50 [2] | IC50 (Thromboxane-A synthase) | IC50 [3] | Ki [3] | IC50 (Mu-type opioid receptor) | IC50 [4]

CC(=O)O[C@]1(C(C)=O)CC[C@H]2[C@@H]3C=C(C)C4=CC(=O)CC[C@]4(C)[C@H]3CC[C@@]21C [MEGESTROL ACETATE]
Not Active: IC50 [1] | IC50 [2] | IC50 (Thromboxane-A synthase) | IC50 [3] | Ki [3] | IC50 (Mu-type opioid receptor) | IC50 [4]

COc1ccccc1OCC(O)COC(N)=O (centres undefined) [METHOCARBAMOL]
Not Active: IC50 [1] | IC50 [2] | IC50 (Thromboxane-A synthase) | IC50 [3] | Ki [3] | IC50 (Mu-type opioid receptor) | IC50 [4]

CN(Cc1cnc2nc(N)nc(N)c2n1)c1ccc(C(=O)N[C@@H](CCC(=O)O)C(=O)O)cc1 [METHOTREXATE]
Not Active: IC50 [1] | IC50 [2] | IC50 (Thromboxane-A synthase) | IC50 [3] | Ki [3] | IC50 (Mu-type opioid receptor) | IC50 [4]

COC(=O)c1ccccc1O [METHYL SALICYLATE]
Not Active: IC50 [1] | IC50 [2] | IC50 (Thromboxane-A synthase) | IC50 [3] | Ki [3] | IC50 (Mu-type opioid receptor) | IC50 [4]

COc1ccc2cc(CCC(C)=O)ccc2c1 [NABUMETONE]
Not Active: IC50 [1] | IC50 [2] | IC50 (Thromboxane-A synthase) | IC50 [3] | Ki [3] | IC50 (Mu-type opioid receptor) | IC50 [4]

O=C(O)c1cccnc1 [NIACIN]
Not Active: IC50 [1] | IC50 [2] | IC50 (Thromboxane-A synthase) | IC50 [3] | Ki [3] | IC50 (Mu-type opioid receptor) | IC50 [4]

CNC(=C[N+](=O)[O-])NCCSCc1csc(CN(C)C)n1 [NIZATIDINE]
Not Active: IC50 [1] | IC50 [2] | IC50 (Thromboxane-A synthase) | IC50 [3] | Ki [3] | IC50 (Mu-type opioid receptor) | IC50 [4]

C[C@]12C/C(=C/O)C(=O)C[C@@H]1CC[C@@H]1[C@@H]2CC[C@@]2(C)[C@H]1CC[C@]2(C)O [OXYMETHOLONE]
Not Active: IC50 [1] | IC50 [2] | IC50 (Thromboxane-A synthase) | IC50 [3] | Ki [3] | IC50 (Mu-type opioid receptor) | IC50 [4]

CC(C)(CO)C(O)C(=O)NCCCO (centres undefined) [PANTHENOL]
Not Active: IC50 [1] | IC50 [2] | IC50 (Thromboxane-A synthase) | IC50 [3] | Ki [3] | IC50 (Mu-type opioid receptor) | IC50 [4]

OCCN1CCN(CCCN2c3ccccc3Sc3ccc(Cl)cc32)CC1 [PERPHENAZINE]
Not Active: IC50 [1] | IC50 [2] | IC50 (Thromboxane-A synthase) | IC50 [3] | Ki [3] | IC50 (Mu-type opioid receptor) | IC50 [4]

CCCCC1C(=O)N(c2ccccc2)N(c2ccccc2)C1=O [PHENYLBUTAZONE]
Not Active: IC50 [1] | IC50 [2] | IC50 (Thromboxane-A synthase) | IC50 [3] | Ki [3] | IC50 (Mu-type opioid receptor) | IC50 [4]

Cc1cccc(Nc2cc(Cl)nc(SCC(=O)O)n2)c1C [PIRINIXIC ACID]
Not Active: IC50 [1] | IC50 [2] | IC50 (Thromboxane-A synthase) | IC50 [3] | Ki [3] | IC50 (Mu-type opioid receptor) | IC50 [4]

CC[C@H](C)C(=O)O[C@H]1C[C@H](O)C=C2C=C[C@H](C)[C@H](CC[C@@H](O)C[C@@H](O)CC(=O)O)[C@H]21 [PRAVASTATIN]
Not Active: IC50 [1] | IC50 [2] | IC50 (Thromboxane-A synthase) | IC50 [3] | Ki [3] | IC50 (Mu-type opioid receptor) | IC50 [4]

CC(C)(Sc1cc(C(C)(C)C)c(O)c(C(C)(C)C)c1)Sc1cc(C(C)(C)C)c(O)c(C(C)(C)C)c1 [PROBUCOL]
Not Active: IC50 [1] | IC50 [2] | IC50 (Thromboxane-A synthase) | IC50 [3] | Ki [3] | IC50 (Mu-type opioid receptor) | IC50 [4]
